{
  "source": "patent US20040259913A1",
  "about": "“Diamide invertebrate pest control agents” (priority 2002, published 2004)",
  "system": "beet armyworm (Spodoptera exigua)",
  "assay": "Test C: control of beet armyworm on corn (maize) plant, foliar spray",
  "type": "in vivo",
  "settings": "sprayed at 50 ppm; corn (maize) plant pre-infested with 10-15 1-day-old larvae; visually rated as in Test A",
  "method": "Test compounds were formulated using a solution containing 10% acetone, 90% water and 300 ppm X-77® Spreader Lo-Foam Formula non-ionic surfactant containing alkylarylpolyoxyethylene, free fatty acids, glycols and isopropanol (Loveland Industries, Inc.), unless otherwise indicated. The formulated compounds were applied in 1 mL of liquid through a SUJ2 atomizer nozzle with ⅛ JJ custom body (Spraying Systems Co,) positioned 1.27 cm (0.5 inches) above the top of each test unit. All experimental compounds in this screen were sprayed at 250 ppm and replicated three times. After spraying of the formulated test compound, each test unit was allowed to dry for 1 hour and then a black, screened cap was placed on top. The test units were held for 6 days in a growth chamber at 25° C. and 70% relative humidity. Plant feeding damage was then visually assessed. For evaluating control of beet armyworm (Spodoptera exigua) the test unit consisted of a small open container with a 4-5-day-old corn (maize) plant inside. This was pre-infested with 10-15 1-day-old larvae on a piece of insect diet by use of a core sampler as described for Test A. Test compounds were formulated and sprayed at 50 ppm as described for Test A. The applications were replicated three times. After spraying, the test units were maintained in a growth chamber and then visually rated as described for Test A.",
  "data": [
    {"compound": "CC1=C(NC(=O)c2cc(C(F)(F)F)nn2-c2ncccc2Cl)C(C(=O)NC(C)C)CS1", "note": "(stereo not shown) [Compound 1, 1-(3-Chloro-2-pyridinyl)-N-[4,5-dihydro-2-methyl-4-[[(1-methylethyl)amino]carbonyl]-3-thienyl]-3-(trifluoromethyl)-1H-pyrazole-5-carboxamide]", "values": [
      {"measurement": "feeding damage (very good levels of plant protection)", "result": "≤ 20", "unit": "%"}
    ]}
  ]
}
